From publication PMC10586543 (Advanced functional materials, 2023)

Assays:
human recombinant MMP-9 = human recombinant MMP-9 (Homo sapiens, UniProt P14780); assay: In vitro specificity reaction with off-target protease; conditions: free peptide; 15 nM human recombinant MMP-9; TCNB buffer; 37 °C, 1 h; fluorescence (Figure S2)
human α-thrombin = human α-thrombin (Homo sapiens, UniProt P00734); assay: as above; conditions: free peptide; 13.5 nM human α-thrombin; TCNB buffer; 37 °C, 1 h; fluorescence (Figure S2)

human recombinant MMP-9, sequence (P14780 107-444 limits assumed): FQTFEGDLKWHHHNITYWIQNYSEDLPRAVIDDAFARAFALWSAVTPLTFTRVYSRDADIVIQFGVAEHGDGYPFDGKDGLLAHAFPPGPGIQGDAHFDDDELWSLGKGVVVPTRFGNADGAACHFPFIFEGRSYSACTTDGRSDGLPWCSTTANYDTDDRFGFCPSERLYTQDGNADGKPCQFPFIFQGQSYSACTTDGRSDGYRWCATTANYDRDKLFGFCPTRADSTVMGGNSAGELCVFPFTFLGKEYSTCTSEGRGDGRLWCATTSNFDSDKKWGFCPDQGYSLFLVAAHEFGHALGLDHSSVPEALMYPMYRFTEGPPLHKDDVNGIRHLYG

Biotin-GGSGG-K(5FAM)-QEVYGAMP-K(CPQ2)-C-NH2 [calpain substrate peptide]
activation after incubation with MMP9 (human recombinant MMP-9): did not activate | activation after incubation with α-thrombin (human α-thrombin): did not activate
